Reference: patent US20230392126A1, “TISSUE ORGANOIDS” (priority 2016, published 2023)

Legend:
insulinoma cells = assay: Insulin secretion of starved insulinoma cells treated with conditioned medium (ELISA); type: cell-based
epidermal stem cells = assay: Anchorage-independent growth in soft agar; details: SCC cancer initiating cells as positive control
[1] = Intraperitoneal insulin tolerance test (ITT) in grafted mice; type: in vivo, mouse; details: vs control mice or GLP1 mice without doxycycline
Experimental: (§1) For glucose and insulin tolerance tests, an intraperitoneal glucose tolerance test (IPGTT) was performed on mice fed an HFD for 10 weeks. Mice were fasted for 6 h before the test. Animals were injected (1 g/kg glucose/body weight, i.p.) with glucose dissolved in saline, and blood glucose was measured at 0, 30, 60 and 90 min using glucose test strips and glucose meters. An intraperitoneal insulin tolerance test was carried out 1 week after IPGTT. Mice were fasted for 4 h and injected (2 U/kg, i.p.) with insulin purchased from Sigma (St. Louis, MO). Blood glucose levels were determined thereafter at 0, 30, 60 and 90 min.
(§2) To examine glucose homeostasis, IPGTT (intraperitoneal glucose tolerance test) and ITT (insulin tolerance test) were performed.

[2] = GLP1 level in blood by ELISA, CD1 mice grafted with mouse skin organoids; type: in vivo
Experimental: To investigate the potential therapeutic effect of GLP1 in vivo, skin organoid cultures with epidermal keratinocytes targeted with a GLP1-expression vector or a control vector, and transplant the organoids to CD1 host animals (FIGS. 11A and 11B-C) were prepared. […] Expression of GLP1 in grafted animals was stable for more than 3 months (FIG. 11K).

[3] = Intraperitoneal glucose tolerance test (IPGTT) in grafted mice fed HFD; type: in vivo, mouse
Experimental: For glucose tolerance testing, an intraperitoneal glucose tolerance test (IPGTT) was performed on mice fed an HFD for 10 weeks. Mice were fasted for 6 h before the test. Animals were injected (1 g/kg glucose/body weight, i.p.) with glucose dissolved in saline, and blood glucose was measured at 0, 10, 20, 30, 60 and 90 minutes using glucose test strips and glucose meters.
IPGTT was performed to examine glucose homeostasis.
as §1, §2

[4] = GLP1 level in blood by ELISA, nude mice grafted with human skin organoids; type: in vivo, mouse; details: human GLP1-expressing grafts, doxycycline food
Text: The engineered cells stratified and formed skin organoids in vitro, which were transplanted to nude hosts (FIG. 13G-H).

mouse epidermal cells = assay: Secretion of GLP1 in cell culture medium by ELISA (mouse epidermal cells); type: cell-based
[5] = test system: human epidermal keratinocytes; assay: Cell proliferation and differentiation of engineered human epidermal cells in vitro; type: cell-based
Experimental: Primary human neonatal epidermal keratinocytes were obtained from Thermo Fischer® (C0015C), and cultured with Epilife® medium (Thermo Fischer, M-EPICF-500) with manufacturer's recommended procedures. Calcium shift was performed to induce differentiation of primary keratinocytes by increasing the calcium concentration in culture media to 1.5 mM.
Propidium iodide (PI) staining followed by flow cytometry were used to determine the effect of cell cycle profiles. Mouse and human epidermal cells were cultured in two 6 cm cell culture dish for 24 hours, respectively. Cells were trypsinized, and 1×10^5 cells from each dish were collected, followed by one PBS wash. […] After staining, the cells were analyzed immediately using flow cytometer BD FACSCanto™ II (BD Biosciences, San Jose, CA) with an excitation wavelength at 488 nm and emission at 585 nm. DNA content and histograms of cell cycle distribution were analyzed using FlowJo™ software, version 10 (FLOWJO LLC, OR).
Western blotting was performed as described previously (Blanpain et al.). […] Visualization and quantification was carried out with the LI-COR Odyssey® scanner and software (LI-COR Biosciences).
Propidium iodide (PI) staining followed by flow cytometry were used to determine the effect of cell cycle profiles. […] DNA content and histograms of cell cycle distribution were analyzed using FlowJo™ software, version 10 (FLOWJO LLC, OR). […]

In the case of GLP1, the “insulin secretion induced by conditioned medium” value (insulinoma cells; conditioned medium from mouse epidermal cells) is reported as “significantly induce secretion of insulin”, the “insulin secretion induced by secreted GLP1 fusion protein” value (insulinoma cells; from human epidermal cells) is reported as “induced insulin secretion in vitro” and the “anchorage-independent growth (tumorigenicity)” value (epidermal stem cells) is reported as “cannot grow in suspension”. The insulin resistance [1] was “significantly reduced insulin resistance”, the “level of GLP1 in the blood” value ([2]; food containing doxycycline) was “significantly enhanced level of GLP1 in the blood” and the “duration of stable GLP1 expression in grafted animals” value ([2]; mouse, in vivo) was “more than 3 months”. The glycemic excursion ([3]; GLP1/GGBP grafts, blood glucose and GGBP imaging) was “significantly reduced glycemic excursion”, the glycemic excursion ([3]; HFD, doxycycline-induced GLP1) was “significantly reduced glycemic excursion” and the “GLP1 in the blood” value [4] was “significant secretion of GLP1 was detected in the blood”. For the same substance, the “GLP1 production and secretion” value (mouse epidermal cells; GLP1/GGBP expression cassette, constitutive) was “robust GLP1 production and secretion”, the GLP1 production (mouse epidermal cells; tetracycline-inducible cassette, doxycycline stimulation) was “robust GLP1 production upon stimulation with doxycycline in a dose-dependent manner” and the “effect of expression on cell proliferation / differentiation in vitro” value [5] was “did not significantly change cell proliferation”.
